Measurements as given in patent US11760984B2, “CRISPR protein inhibitors” (THE BROAD INSTITUTE, INC., priority 2017, dated 2023).

Target: T1, SpCas9:gRNA complex (Streptococcus pyogenes serotype M1, UniProt Q99ZW2)
T1 construct: His6 (N, cleaved yes); made in house; host or cells: E. coli BL21 Star (DE3)
Test: 19F NMR binding assay
Settings: for Fractional Occupancy (1-Ibound/I0) / LW (linewidth of 19F signal): [Ligand] 50 μM
Description: (§1) NMR binding assay. All samples were prepared with 50 μM BRD7087 in 20 mM Tris buffer (pH=7.4) with varying concentrations of SpCas9:gRNA in a 3 mm NMR tube. Experiments were performed on a 600 MHz (19F: 564.71 MHz) Bruker Avance III NMR spectrometer equipped with a 5 mm QCI-F CryoProbe and a SampleJet for automated sample handling. To acquire spectra, a standard one-pulse 19F experiment with WALTZ-16 for proton decoupling during acquisition, a 5 second recycle delay, and 256 scans was used. All spectra were recorded at 280 K. NMR data were apodized with a 1 Hz exponential function prior to Fourier transformation. All spectra were baseline corrected; peak widths and intensities were extracted using the automated line-fitting feature provided with the MNova software package. Determination of the value of Kd was accomplished using least squares fitting to the expression given in Equation 8 in the paper by Shortridge et al.2.
Kd values obtained by NMR rely on the assumption that ligand binding is in fast-exchange, which typically holds true for ligands with Kd in the 0.5 μM to 20 mM range.
as §1, with “(^19F:” for “(19F:”, “^19F” for “19F”, “al.^2.” for “al.2.”

T1 sequence (Q99ZW2 whole entry, one chain of several): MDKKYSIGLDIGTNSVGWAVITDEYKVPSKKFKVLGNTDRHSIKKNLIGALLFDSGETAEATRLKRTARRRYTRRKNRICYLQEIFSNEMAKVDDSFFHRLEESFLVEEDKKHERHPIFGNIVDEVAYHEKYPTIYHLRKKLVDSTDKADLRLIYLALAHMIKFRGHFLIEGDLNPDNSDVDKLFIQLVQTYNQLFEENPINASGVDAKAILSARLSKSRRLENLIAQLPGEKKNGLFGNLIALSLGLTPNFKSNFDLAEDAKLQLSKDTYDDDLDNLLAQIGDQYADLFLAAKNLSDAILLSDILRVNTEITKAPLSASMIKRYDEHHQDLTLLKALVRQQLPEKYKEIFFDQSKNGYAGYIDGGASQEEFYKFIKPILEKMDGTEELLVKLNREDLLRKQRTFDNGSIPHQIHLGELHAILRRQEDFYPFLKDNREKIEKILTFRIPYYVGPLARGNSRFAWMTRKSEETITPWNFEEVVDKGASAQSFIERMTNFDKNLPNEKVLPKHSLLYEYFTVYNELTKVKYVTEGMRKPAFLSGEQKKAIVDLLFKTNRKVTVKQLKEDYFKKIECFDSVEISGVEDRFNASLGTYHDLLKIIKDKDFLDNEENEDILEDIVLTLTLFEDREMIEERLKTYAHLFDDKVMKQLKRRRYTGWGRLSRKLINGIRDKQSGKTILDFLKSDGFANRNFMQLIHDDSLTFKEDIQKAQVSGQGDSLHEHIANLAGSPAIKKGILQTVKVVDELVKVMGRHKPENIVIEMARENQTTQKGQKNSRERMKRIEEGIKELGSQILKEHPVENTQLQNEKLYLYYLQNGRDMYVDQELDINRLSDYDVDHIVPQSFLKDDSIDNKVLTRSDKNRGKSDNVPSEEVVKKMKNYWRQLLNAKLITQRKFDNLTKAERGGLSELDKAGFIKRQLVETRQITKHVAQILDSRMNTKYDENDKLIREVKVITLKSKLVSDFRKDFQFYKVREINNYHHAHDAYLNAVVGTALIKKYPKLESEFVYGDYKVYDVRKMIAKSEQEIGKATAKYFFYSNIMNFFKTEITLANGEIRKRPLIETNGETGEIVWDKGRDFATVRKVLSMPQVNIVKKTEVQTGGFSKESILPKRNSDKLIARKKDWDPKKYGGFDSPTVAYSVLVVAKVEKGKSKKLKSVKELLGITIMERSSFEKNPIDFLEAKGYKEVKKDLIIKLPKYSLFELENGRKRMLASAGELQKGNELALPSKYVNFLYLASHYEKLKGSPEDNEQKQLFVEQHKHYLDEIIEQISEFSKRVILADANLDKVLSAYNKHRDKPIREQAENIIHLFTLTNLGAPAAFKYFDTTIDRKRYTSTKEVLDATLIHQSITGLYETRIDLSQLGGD

For `OC[C@H]1Nc2ccc(-c3cccc(F)c3)cc2[C@H]2[C@@H]1CCN2Cc1ccncc1` [BRD7087, ((3aR,4S,9bR)-8-(3-Fluorophenyl)-1-(pyridin-4-ylmethyl)-2,3,3a,4,5,9b-hexahydro-1H-pyrrolo[3,2-c]quinolin-4-yl)methanol], the Kd (50 μM ligand, 20 mM Tris pH 7.4, 280 K, read-out: binding constant Kd (method of Shortridge et al., peak intensities)) was roughly 2200 nM, the “binding by differential line broadening of 19F signal” value (50 μM ligand, broadening from 0.75 μM SpCas9:gRNA) was “relatively tight binding” and the “Fractional Occupancy (1-Ibound/I0)” value ([Protein:gRNA] 0.75 μM) was 0.1307. The “LW (linewidth of 19F signal)” value ([Protein:gRNA] 0.75 μM) was 4.3 Hz, the “Fractional Occupancy (1-Ibound/I0)” value ([Protein:gRNA] 1.0 μM) was 0.1817 and the “LW (linewidth of 19F signal)” value ([Protein:gRNA] 1.0 μM) was 4.6 Hz. For the same molecule, the “Fractional Occupancy (1-Ibound/I0)” value ([Protein:gRNA] 1.25 μM) was 0.3042, the “LW (linewidth of 19F signal)” value ([Protein:gRNA] 1.25 μM) was 5.3 Hz and the “Fractional Occupancy (1-Ibound/I0)” value ([Protein:gRNA] 1.5 μM) was 0.3436. For the same molecule, the “LW (linewidth of 19F signal)” value ([Protein:gRNA] 1.5 μM) was 5.9 Hz, the “Fractional Occupancy (1-Ibound/I0)” value ([Protein:gRNA] 1.75 μM) was 0.4015 and the “LW (linewidth of 19F signal)” value ([Protein:gRNA] 1.75 μM) was 6.3 Hz.
